Assay results from PMC6803848, “Exploring New Structural Features of the 18β-Glycyrrhetinic Acid Scaffold for the Inhibition of Anaplastic Lymphoma Kinase” (Molecules, 2019).
In brackets after ≈: the same amount, converted by molar mass.

What was measured:
[1] = test system: MCF-7; assay: MTT antiproliferative assay, MCF-7 cells; assay type: cell-based; details: Homo sapiens, MCF7; MCF-7, MTT
Procedure: (§1) All the cells were seeded in 96-well plates and incubated with 5% CO2 at 37 °C for 24 h. Next, the compounds and the reference were dissolved into the culture medium. The final concentration of DMSO in the medium was less than 0.5%. After the cells were treated with compounds for 48 h, the supernatant was removed and 5 mg/mL of a fresh prepared solution of MTT was added to each well and incubated with the cells at 37 °C for another 4 h. The medium was removed, and 100 μL of testing solution was added to each well. After an overnight incubation with 5% CO2 at 37 °C, the absorbance was measured at 490/630 nm by the microplate reader. The IC50 was calculated using GraphPad Prism version 6.0 software (San Diego, CA, USA) from the non-linear curve.

[2] = test system: PC-3; assay: MTT antiproliferative assay, PC-3 cells; assay type: cell-based; details: Homo sapiens; PC-3, MTT
Procedure: as §1

[3] = test system: HT29; assay: MTT antiproliferative assay, HT29 cells; assay type: cell-based; details: Homo sapiens, HT-29; for inhibition at 2 µg/mL: HT29, 2 μg/mL; for inhibition at 2 µg/mL / inhibition at 20 µg/mL: 48 h, MTT, read-out: Antiproliferative activity (growth inhibition, %); for inhibition at 20 µg/mL: HT29, 20 μg/mL; for IC50: HT29, MTT
Procedure: as §1

[4] = biological target: ALK (Homo sapiens, UniProt Q9UM73); assay: Kinase activity determination (ELISA), ALK; assay type: biochemical; details: purified ALK, 10 μmol/L ATP solution, read-out: Inhibitory effect on ALK activity, IC50
Procedure: The effects of the compounds on the activities of the tyrosine kinase was determined using enzyme-linked immunosorbent assay (ELISA). Briefly, 20 μg/mL substrate [poly (Glu,Tyr)4:1], 50 μL aliquot of 10 μmol/L ATP solution diluted in kinase buffer (50 mmol/L HEPES pH 7.5, 50 mmol/L MgCl2, 0.5 mmol/L MnCl2, 0.2 mmol/L Na3VO4, and 1 mmol/L DTT) was added to each well; 1 μL of various concentrations of target compound and positive control drug diluted in 1% DMSO (v/v) were then added to each well. 1% DMSO was used as the negative control. After 5–10 min preincubation, the kinase reaction was initiated by the addition of purified ALK proteins diluted in 49 μL of kinase buffer. After 30 min preincubation, the anti-phosphotyrosine monoclonalantibody (100 μL; 1:500, diluted in 5 mg/mL BSA T-PBS) was then added. […] A 100 μL aliquot of a solution containing 0.03% H2O2 and 2 mg/mL o-phenylenediamine in 0.1 mol/L citrate buffer was added. The reaction was terminated by the addition of 50 μL of 2 mol/L H2SO4 as the color changed, and the plate was analyzed using a multi-well spectrophotometer at 490 nm.

[5] = test system: HepG2; assay: MTT antiproliferative assay, HepG2 cells; assay type: cell-based; details: Homo sapiens
Procedure: as §1

[6] = test system: A549; assay: MTT antiproliferative assay, A549 cells; assay type: cell-based; details: Homo sapiens; for inhibition at 2 µg/mL: A549, 2 μg/mL; for inhibition at 2 µg/mL / inhibition at 20 µg/mL: 48 h, MTT, read-out: Antiproliferative activity (growth inhibition, %); for inhibition at 20 µg/mL: A549, 20 μg/mL; for IC50: A549, MTT
Procedure: as §1

[7] = test system: Karpas299; assay: MTT antiproliferative assay, Karpas299 cells; assay type: cell-based; details: Homo sapiens, KARPAS-299
Procedure: as §1

[8] = test system: LO2 cells; assay: MTT cytotoxicity assay, non-tumorigenic liver LO2 cell; assay type: cell-based; details: 0.064–40.0 μg/mL, 48 h, Figure 8
Procedure: Given the mentioned results, the most efficient compound 3j was selected for in depth study, and it was evaluated in different concentrations (0.064–40.0 μg/mL) towards HepG2 cell line and non-tumorigenic liver LO2 cell. A 48 h continuous drug exposure protocol was employed by the MTT cytotoxicity assay.
as §1

[9] = test system: HepG2; assay: MTT antiproliferative assay, HepG2 cells; assay type: cell-based, human; details: five concentrations, 24, 48 or 72 h, Figure 7

Sequence of ALK (Q9UM73 19-1620): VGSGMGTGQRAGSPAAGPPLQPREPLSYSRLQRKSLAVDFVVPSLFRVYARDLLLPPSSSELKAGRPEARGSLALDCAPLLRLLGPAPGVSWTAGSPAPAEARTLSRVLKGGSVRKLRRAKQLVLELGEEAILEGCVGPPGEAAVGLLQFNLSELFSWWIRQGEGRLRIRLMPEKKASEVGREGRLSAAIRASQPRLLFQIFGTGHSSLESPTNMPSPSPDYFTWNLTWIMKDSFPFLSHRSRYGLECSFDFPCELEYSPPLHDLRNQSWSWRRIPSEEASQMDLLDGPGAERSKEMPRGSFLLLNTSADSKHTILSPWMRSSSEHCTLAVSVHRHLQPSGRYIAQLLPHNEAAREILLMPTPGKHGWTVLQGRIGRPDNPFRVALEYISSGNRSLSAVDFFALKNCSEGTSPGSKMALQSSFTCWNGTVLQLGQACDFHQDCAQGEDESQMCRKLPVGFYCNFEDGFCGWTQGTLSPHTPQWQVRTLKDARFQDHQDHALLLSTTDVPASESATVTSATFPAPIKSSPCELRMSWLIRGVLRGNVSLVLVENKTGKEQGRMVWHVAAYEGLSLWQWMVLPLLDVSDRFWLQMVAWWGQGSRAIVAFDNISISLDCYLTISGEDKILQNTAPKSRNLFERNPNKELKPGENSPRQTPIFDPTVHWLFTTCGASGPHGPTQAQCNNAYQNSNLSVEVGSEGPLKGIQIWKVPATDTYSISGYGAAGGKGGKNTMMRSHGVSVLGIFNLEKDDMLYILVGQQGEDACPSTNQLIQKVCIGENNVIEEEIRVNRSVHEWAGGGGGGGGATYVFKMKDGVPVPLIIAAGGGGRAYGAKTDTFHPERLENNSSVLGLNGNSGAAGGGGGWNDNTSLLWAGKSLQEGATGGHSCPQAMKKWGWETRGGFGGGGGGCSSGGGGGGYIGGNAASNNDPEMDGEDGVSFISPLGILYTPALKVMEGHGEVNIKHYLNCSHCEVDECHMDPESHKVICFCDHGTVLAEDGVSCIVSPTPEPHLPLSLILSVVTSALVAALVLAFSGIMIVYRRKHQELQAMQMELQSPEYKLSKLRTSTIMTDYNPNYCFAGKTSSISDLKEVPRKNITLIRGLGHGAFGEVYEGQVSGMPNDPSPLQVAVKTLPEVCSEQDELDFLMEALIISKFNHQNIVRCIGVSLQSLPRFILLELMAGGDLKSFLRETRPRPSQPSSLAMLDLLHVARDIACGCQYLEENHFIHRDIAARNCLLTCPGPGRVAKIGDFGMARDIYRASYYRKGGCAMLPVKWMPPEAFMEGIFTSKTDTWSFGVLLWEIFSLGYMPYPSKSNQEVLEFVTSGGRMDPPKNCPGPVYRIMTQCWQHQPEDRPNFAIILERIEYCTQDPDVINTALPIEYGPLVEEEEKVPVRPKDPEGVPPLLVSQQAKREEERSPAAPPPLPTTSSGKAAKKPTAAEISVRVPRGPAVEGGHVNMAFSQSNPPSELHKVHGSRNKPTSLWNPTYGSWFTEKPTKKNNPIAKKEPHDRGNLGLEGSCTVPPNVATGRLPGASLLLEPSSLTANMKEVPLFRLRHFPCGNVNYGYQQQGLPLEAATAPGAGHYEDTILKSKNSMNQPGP

Row | SMILES | IC50 [1] [mg/L] | IC50 [2] [mg/L] | inhibition at 2 µg/mL [3] [%] | inhibition at 20 µg/mL [3] [%] | IC50 [3] [mg/L] | IC50 [4] [µM] | IC50 [5] [mg/L] | inhibition at 2 µg/mL [6] [%] | inhibition at 20 µg/mL [6] [%] | IC50 [6] [mg/L] | IC50 [7] [mg/L] | melting point [°C] | Toxic action towards LO2 cells [8] | Inhibition of proliferation of HepG2 cell, concentration and time dependence [9]
1 | CC1(C)C2CC[C@]3(C)[C@H](C(=O)C=C4[C@@H]5C[C@@](C)(C(=O)O)CC[C@]5(C)CC[C@]43C)[C@@]2(C)CC[C@@H]1OC(=O)Nc1cc(C(F)(F)F)cc(C(F)(F)F)c1 (stereo partly drawn) [3k, 3β-(((3,5-bis (trifluoromethyl)phenyl)carbamoyl)oxy)-11-oxo-olean-12-en-30-oic acid] | 7 (≈ 9.64 µM) | 10.3 (≈ 14.2 µM) | 10.8 | 94.8 | 6.47 (≈ 8.91 µM) | 0.278 | 11.2 (≈ 15.5 µM) | 18.8 | 88.8 | 2.93 (≈ 4.04 µM) | 9.16 (≈ 12.6 µM) | 248.8 to 251.7 | – | –
2 | CC1(C)C2CC[C@]3(C)[C@H](C(=O)C=C4[C@@H]5C[C@@](C)(C(=O)O)CC[C@]5(C)CC[C@]43C)[C@@]2(C)CC[C@@H]1OC(=O)Nc1cccc(C(F)(F)F)c1 (stereo partly drawn) [3j, 3β-(((3-(trifluoromethyl)phenyl)carbamoyl)oxy)-11-oxo-olean-12-en-30-oic acid] | 5.26 (≈ 8 µM) | 5.96 (≈ 9.06 µM) | 24.8 | 99.6 | 3.19 (≈ 4.85 µM) | 0.121 | 5.55 (≈ 8.44 µM) | 17.7 | 88.3 | 2.81 (≈ 4.27 µM) | 5.59 (≈ 8.5 µM) | 239.1 to 240.7 | did not exhibit significant toxic action | inhibited the proliferation of HepG2 cell in a significant concentration manner, whereas it did not occur in a time-dependent manner
3 | CC1(C)C2CC[C@]3(C)[C@H](C(=O)C=C4[C@@H]5C[C@@](C)(C(=O)O)CC[C@]5(C)CC[C@]43C)[C@@]2(C)CC[C@@H]1OC(=O)Nc1ccc(OC(F)(F)F)cc1 (stereo partly drawn) [3n, 3β-(((4-(trifluoromethoxy)phenyl)carbamoyl)oxy)-11-oxo-olean-12-en-30-oic acid] | 9.3 (≈ 13.8 µM) | 13.3 (≈ 19.8 µM) | 19 | 97.7 | 11.3 (≈ 16.8 µM) | – | 12.6 (≈ 18.6 µM) | 20.1 | 97.1 | 7.42 (≈ 11 µM) | 26 (≈ 38.5 µM) | 256.4 to 258.4 | – | –
4 | CC1(C)C2CC[C@]3(C)[C@H](C(=O)C=C4[C@@H]5C[C@@](C)(C(=O)O)CC[C@]5(C)CC[C@]43C)[C@@]2(C)CC[C@@H]1OC(=O)Nc1ccc(Cl)c(C(F)(F)F)c1 (stereo partly drawn) [3b, 3β-(((4-chloro-3-(trifluoromethyl)phenyl)carbamoyl)oxy)-11-oxo-olean-12-en-30-oic acid] | 8.92 (≈ 12.9 µM) | 12.1 (≈ 17.4 µM) | 14.1 | 87.7 | 12 (≈ 17.3 µM) | – | 9.25 (≈ 13.4 µM) | 14 | 77.3 | 11.9 (≈ 17.2 µM) | 18.6 (≈ 26.8 µM) | 247.8 to 248.5 | – | –
